Structures are written as SMILES.

This note sets out measurements from patent US6849716B1, “Methods for designing inhibitors of serine/threonine kinases and tyrosine kinases” (Vertex Pharmaceuticals Incorporated, priority 1998, dated 2005).

The target in one test is ERK2 (Q105A) (Homo sapiens, UniProt P28482, Q105A). Kind of test: Coupled spectrophotometric kinase assay, ERK2 (Q105A). The class given is biochemical.
A further test addresses JNK3 (wild-type) (Homo sapiens, UniProt P53779). The test can be described thus: Coupled spectrophotometric kinase assay, JNK3 (wild-type).
A further test addresses ERK2 (Q105T) (Homo sapiens, UniProt P28482, Q105T). The test can be described thus: Coupled spectrophotometric kinase assay, ERK2 (Q105T). The class given is biochemical.
In the next test the target is ERK2 (wild-type) (Homo sapiens, UniProt P28482). The test can be described thus: Coupled spectrophotometric kinase assay, ERK2 (wild-type). The class given is biochemical.
The next test addresses p38 (Homo sapiens, UniProt Q16539). The test can be described thus: Coupled spectrophotometric kinase assay, p38. The class given is biochemical. The note with it: read-out: KM for ATP.
The next test has as its target JNK3 (M146A) (Homo sapiens, UniProt P53779, M146A). Kind of test: Coupled spectrophotometric kinase assay, JNK3 (M146A).
Another test addresses JNK3 (M146A/D150G) (Homo sapiens, UniProt P53779, D150G/M146A). Kind of test: Coupled spectrophotometric kinase assay, JNK3 (M146A/D150G).
Where [1] appears, read: 100 μM ATP, 200 μM EGF receptor peptide, read-out: Inhibition constants, Ki.

Sequence of JNK3 (wild-type) (P53779 40-402): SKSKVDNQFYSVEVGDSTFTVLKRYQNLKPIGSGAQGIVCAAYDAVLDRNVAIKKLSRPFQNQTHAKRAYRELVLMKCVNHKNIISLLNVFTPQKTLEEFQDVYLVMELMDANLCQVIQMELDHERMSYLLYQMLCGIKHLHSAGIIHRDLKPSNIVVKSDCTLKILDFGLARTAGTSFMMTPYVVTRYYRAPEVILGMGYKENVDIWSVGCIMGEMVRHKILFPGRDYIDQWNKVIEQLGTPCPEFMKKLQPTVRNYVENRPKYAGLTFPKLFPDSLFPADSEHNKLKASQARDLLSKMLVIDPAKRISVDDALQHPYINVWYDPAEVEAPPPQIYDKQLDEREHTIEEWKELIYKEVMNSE
Sequence of JNK3 (M146A/D150G) (P53779 40-402 M146A/D150G): as the sequence (P53779 40-402) above, with M107A, D111G counted along it
Sequence of JNK3 (M146A) (P53779 40-402 M146A): as the sequence (P53779 40-402) above, with M107A counted along it
Sequence of p38 (Q16539 whole entry): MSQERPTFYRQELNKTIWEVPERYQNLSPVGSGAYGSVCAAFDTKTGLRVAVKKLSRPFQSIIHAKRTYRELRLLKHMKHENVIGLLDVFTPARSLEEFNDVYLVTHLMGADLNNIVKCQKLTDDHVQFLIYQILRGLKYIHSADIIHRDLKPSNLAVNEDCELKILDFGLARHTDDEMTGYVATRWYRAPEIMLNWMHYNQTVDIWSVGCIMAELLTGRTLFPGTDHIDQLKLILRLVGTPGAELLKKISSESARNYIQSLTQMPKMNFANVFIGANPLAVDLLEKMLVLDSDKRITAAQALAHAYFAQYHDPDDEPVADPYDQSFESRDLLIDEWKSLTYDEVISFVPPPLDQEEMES

As usually defined, the Km is the substrate concentration at which the rate is half of its maximum. For `Nc1ncnc2c1ncn2[C@@H]1O[C@H](COP(=O)(O)OP(=O)(O)OP(=O)(O)O)[C@@H](O)[C@H]1O` [ATP], the Km on ERK2 (Q105A) (read-out: KM for ATP) was found to be 51 ± 6 µM; on JNK3 (wild-type) (read-out: KM for ATP, JNK3 (wild-type)), 15 µM; on ERK2 (Q105T) (read-out: KM for ATP), 33 ± 4 µM; on ERK2 (wild-type) (read-out: KM for ATP), 76 ± 14 µM; on p38, 260 ± 30 µM; on JNK3 (M146A) (read-out: KM for ATP, JNK3 (M146A)), 75 µM. For the same molecule, the Km at JNK3 (M146A/D150G) (read-out: KM for ATP, JNK3 (M146A/D150G)) is 311 µM.

For orientation: Ki means the equilibrium dissociation constant of an inhibitor or competing ligand from its target. `Oc1ccc(-c2nc(-c3ccc(F)cc3)c(-c3ccncc3)[nH]2)cc1` [SB202190, reference compound]: the Ki at ERK2 (Q105A) (setting [1]) was 0.81 ± 0.19 nM; on ERK2 (Q105T) (setting [1]), 6.8 ± 0.6 nM; on ERK2 (wild-type) (setting [1]) it was over 20000 nM. In addition, the “sensitivity of wild-type JNK3 (in words)” value on JNK3 (wild-type) (wild-type JNK3) is recorded as “moderately sensitive”. Further, the “increase in sensitivity versus wild-type JNK3” value at JNK3 (M146A) (JNK3 M146A mutant) is ~4,000 fold. For the same molecule, the “sensitivity of the JNK3 double mutant (in words)” value at JNK3 (M146A/D150G) (JNK3 (M146A/D150G) compared with wild-type and single mutant) is given as “considerably more sensitive than wild-type, but significantly less than observed for the single mutant”.
